Measured values as given in patent US12077503B2, “Substituted cyclic amides and their use as herbicides” (FMC CORPORATION, priority 2015, dated 2024).

Columns and labels:
Assay type in all cases: in vivo
[1] = system: blackgrass (Alopecurus myosuroides); experiment: Test A postemergence; settings: Alopecurus myosuroides, post-emergence, 240 h, Postemergence
Procedure, shortened: (§1)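 Visual injury, scored on a 0–100 scale relative to untreated controls, was recorded about 10 d after application. Treatments were a preemergence soil spray over planted seeds or a postemergence spray on plants at the one- to two-leaf stage, 2 to 10 cm tall, all in loam soil–sand blend in the greenhouse.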

[2] = system: barnyardgrass (Echinochloa crus-galli); experiment: Test A postemergence; settings: Echinochloa crus-galli, post-emergence, 240 h, Postemergence
Procedure, shortened: as §1

Kochia (Kochia scoparia) [3] = experiment: Test A postemergence; settings: Bassia scoparia, post-emergence, 240 h, Postemergence
Procedure, shortened: as §1

[4] = system: wheat (Triticum aestivum); experiment: Test A postemergence; settings: Triticum aestivum, post-emergence, 240 h, Postemergence
Procedure, shortened: as §1

[5] = system: ryegrass, Italian (Italian ryegrass, Lolium multiflorum); experiment: Test A postemergence; settings: Lolium multiflorum, post-emergence, 240 h, Postemergence
Procedure, shortened: as §1

corn (Zea mays) = experiment: Test A postemergence; settings: Zea mays, post-emergence, 240 h, Postemergence
Procedure, shortened: as §1

[6] = system: Galium (catchweed bedstraw, Galium aparine); experiment: Test A postemergence; settings: Galium, post-emergence, 240 h, Postemergence
Procedure, shortened: as §1

[7] = system: pigweed (Amaranthus retroflexus); experiment: Test A postemergence; settings: Amaranthus retroflexus, post-emergence, 240 h, Postemergence
Procedure, shortened: as §1

[8] = system: giant foxtail (Setaria faberii); experiment: Test A postemergence; settings: Setaria faberi, post-emergence, 240 h, Postemergence
Procedure, shortened: as §1

[9] = system: ragweed (common ragweed, Ambrosia elatior); experiment: Test A postemergence; settings: Ambrosia artemisiifolia, post-emergence, 240 h, Postemergence
Procedure, shortened: as §1

[10] = system: barnyardgrass (Echinochloa crus-galli); experiment: Test A preemergence; settings: Echinochloa crus-galli, pre-emergence, 240 h, Preemergence
Procedure, shortened: as §1

Kochia (Kochia scoparia) [11] = experiment: Test A preemergence; settings: Bassia scoparia, pre-emergence, 240 h, Preemergence
Procedure, shortened: as §1

[12] = system: ryegrass, Italian (Italian ryegrass, Lolium multiflorum); experiment: Test A preemergence; settings: Lolium multiflorum, pre-emergence, 240 h, Preemergence
Procedure, shortened: as §1

[13] = system: pigweed (Amaranthus retroflexus); experiment: Test A preemergence; settings: Amaranthus retroflexus, pre-emergence, 240 h, Preemergence
[14] = system: giant foxtail (Setaria faberii); experiment: Test A preemergence; settings: Setaria faberi, pre-emergence, 240 h, Preemergence
Procedure, shortened: as §1

[15] = system: ragweed (common ragweed, Ambrosia elatior); experiment: Test A preemergence; settings: Ambrosia artemisiifolia, pre-emergence, 240 h, Preemergence
Procedure, shortened: as §1

[16] = system: barnyardgrass (Echinochloa crus-galli); experiment: Test B flooded paddy test; settings: Echinochloa crus-galli, 360 h, Flood, 250 g ai/ha; visually evaluated after 13 to 15 d; read-out: Plant response rating, Barnyardgrass (0 to 100 scale where 0 is no effect and 100 is complete control)
Procedure, shortened: (§2)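 Rating scale 0–100 (visual, vs untreated controls) after a 13–15 d greenhouse period; application to the flood layer, 3 cm above soil and maintained; plants at 2-leaf stage when treated.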

[17] = system: sedge, umbrella (small-flower umbrella sedge, Cyperus difformis); experiment: Test B flooded paddy test; settings: Cyperus difformis, 360 h, Flood, 250 g ai/ha; visually evaluated after 13 to 15 d; read-out: Plant response rating, Sedge, Umbrella (0 to 100 scale where 0 is no effect and 100 is complete control)
Procedure, shortened: as §2

rice (Oryra sativa) = experiment: Test B flooded paddy test; settings: Oryza sativa, 360 h, Flood, 250 g ai/ha; visually evaluated after 13 to 15 d; read-out: Plant response rating, Rice (0 to 100 scale where 0 is no effect and 100 is complete control)
Procedure, shortened: as §2

[18] = system: ducksalad (Heteranthera limosa); experiment: Test B flooded paddy test; settings: Heteranthera limosa, 360 h, Flood, 250 g ai/ha; visually evaluated after 13 to 15 d; read-out: Plant response rating, Ducksalad (0 to 100 scale where 0 is no effect and 100 is complete control)
Procedure, shortened: as §2

Cc1ccc([C@H]2CN(C)C(=O)[C@@H]2C(=O)Nc2cccnc2F)cc1 [Compound 1398]
pest or weed control at 31 g/ha ([1]; 31 g ai/ha, 0 is no effect, 100 is complete control, read-out: Blackgrass plant response rating (0 to 100 scale)): 20%
pest or weed control at 125 g/ha ([1]; 125 g ai/ha, visual injury after approx. 10 d, 0 to 100 scale, 0 no effect, 100 complete control, read-out: Plant response rating, Blackgrass): 60%
pest or weed control at 31 g/ha ([2]; 31 g ai/ha, 0 is no effect, 100 is complete control, read-out: Barnyardgrass plant response rating (0 to 100 scale)): 90%
pest or weed control at 125 g/ha ([2]; 125 g ai/ha, visual injury after approx. 10 d, 0 to 100 scale, 0 no effect, 100 complete control, read-out: Plant response rating, Barnyardgrass): 100%
pest or weed control at 31 g/ha (Kochia (Kochia scoparia) [3]; 31 g ai/ha, 0 is no effect, 100 is complete control, read-out: Kochia plant response rating (0 to 100 scale)): 20%
pest or weed control at 125 g/ha (Kochia (Kochia scoparia) [3]; 125 g ai/ha, visual injury after approx. 10 d, 0 to 100 scale, 0 no effect, 100 complete control, read-out: Plant response rating, Kochia): 60%
plant injury at 31 g/ha ([4]; 31 g ai/ha, 0 is no effect, 100 is complete control, read-out: Wheat plant response rating (0 to 100 scale)): 0%
plant injury at 125 g/ha ([4]; 125 g ai/ha, visual injury after approx. 10 d, 0 to 100 scale, 0 no effect, 100 complete control, read-out: Plant response rating, Wheat): 60%
pest or weed control at 31 g/ha ([5]; 31 g ai/ha, 0 is no effect, 100 is complete control, read-out: Ryegrass, Italian plant response rating (0 to 100 scale)): 0%
pest or weed control at 125 g/ha ([5]; 125 g ai/ha, visual injury after approx. 10 d, 0 to 100 scale, 0 no effect, 100 complete control, read-out: Plant response rating, Ryegrass, Italian): 40%
plant injury at 31 g/ha (corn (Zea mays); 31 g ai/ha, 0 is no effect, 100 is complete control, read-out: Corn plant response rating (0 to 100 scale)): 0%
Corn plant response rating (crop injury, 0 = no effect, 100 = complete kill) at 125 g/ha (corn (Zea mays); 125 g ai/ha, visual injury after approx. 10 d, 0 to 100 scale, 0 no effect, 100 complete control): 40%
pest or weed control at 31 g/ha ([6]; 31 g ai/ha, 0 is no effect, 100 is complete control, read-out: Galium plant response rating (0 to 100 scale)): 30%
pest or weed control at 125 g/ha ([6]; 125 g ai/ha, visual injury after approx. 10 d, 0 to 100 scale, 0 no effect, 100 complete control, read-out: Plant response rating, Galium): 50%
pest or weed control at 31 g/ha ([7]; 31 g ai/ha, 0 is no effect, 100 is complete control, read-out: Pigweed plant response rating (0 to 100 scale)): 0%
pest or weed control at 125 g/ha ([7]; 125 g ai/ha, visual injury after approx. 10 d, 0 to 100 scale, 0 no effect, 100 complete control, read-out: Plant response rating, Pigweed): 0%
pest or weed control at 31 g/ha ([8]; 31 g ai/ha, 0 is no effect, 100 is complete control, read-out: Foxtail, Giant plant response rating (0 to 100 scale)): 90%
pest or weed control at 125 g/ha ([8]; 125 g ai/ha, visual injury after approx. 10 d, 0 to 100 scale, 0 no effect, 100 complete control, read-out: Plant response rating, Foxtail, Giant): 90%
pest or weed control at 31 g/ha ([9]; 31 g ai/ha, 0 is no effect, 100 is complete control, read-out: Ragweed plant response rating (0 to 100 scale)): 0%
pest or weed control at 125 g/ha ([9]; 125 g ai/ha, visual injury after approx. 10 d, 0 to 100 scale, 0 no effect, 100 complete control, read-out: Plant response rating, Ragweed): 30%
pest or weed control at 31 g/ha ([10]; 31 g ai/ha, 0 to 100 scale where 0 is no effect and 100 is complete control, read-out: Barnyardgrass plant response rating): 100%
pest or weed control at 125 g/ha ([10]; 125 g ai/ha, 0 to 100 scale (0 no effect, 100 complete control), read-out: Plant response rating, Barnyardgrass): 100%
pest or weed control at 31 g/ha (Kochia (Kochia scoparia) [11]; 31 g ai/ha, 0 to 100 scale where 0 is no effect and 100 is complete control, read-out: Kochia plant response rating): 100%
pest or weed control at 125 g/ha (Kochia (Kochia scoparia) [11]; 125 g ai/ha, 0 to 100 scale (0 no effect, 100 complete control), read-out: Plant response rating, Kochia): 90%
pest or weed control at 31 g/ha ([12]; 31 g ai/ha, 0 to 100 scale where 0 is no effect and 100 is complete control, read-out: Ryegrass, Italian plant response rating): 0%
pest or weed control at 125 g/ha ([12]; 125 g ai/ha, 0 to 100 scale (0 no effect, 100 complete control), read-out: Plant response rating, Ryegrass, Italian): 70%
pest or weed control at 31 g/ha ([13]; 31 g ai/ha, 0 to 100 scale where 0 is no effect and 100 is complete control, read-out: Pigweed plant response rating): 0%
pest or weed control at 125 g/ha ([13]; 125 g ai/ha, 0 to 100 scale (0 no effect, 100 complete control), read-out: Plant response rating, Pigweed): 50%
pest or weed control at 31 g/ha ([14]; 31 g ai/ha, 0 to 100 scale where 0 is no effect and 100 is complete control, read-out: Foxtail, Giant plant response rating): 100%
pest or weed control at 125 g/ha ([14]; 125 g ai/ha, 0 to 100 scale (0 no effect, 100 complete control), read-out: Plant response rating, Foxtail, Giant): 100%
pest or weed control at 31 g/ha ([15]; 31 g ai/ha, 0 to 100 scale where 0 is no effect and 100 is complete control, read-out: Ragweed plant response rating): 50%
pest or weed control at 125 g/ha ([15]; 125 g ai/ha, 0 to 100 scale (0 no effect, 100 complete control), read-out: Plant response rating, Ragweed): 90%
pest or weed control at 250 g/ha [16]: 80%
pest or weed control at 250 g/ha [17]: 0%
pest or weed control at 250 g/ha (rice (Oryra sativa)): 15%
pest or weed control at 250 g/ha [18]: 100%
